Test results reported in patent US20240082238A1, “COMPOSITIONS AND METHODS FOR TREATING CANCER” (UNIVERSITY OF IOWA RESEARCH FOUNDATION, priority 2021, published 2024).

Experiments:
Hec50co cells = assay: Cytotoxicity assay (MTS), Hec50co cells; type: cell-based, human; conditions: 10 μM CIP added to PTX, 72 h
Description: Cytotoxicity assay. Hec50co cells were seeded at 1500 cells per well in 96-well plates for 24 h in a complete medium. Later, the medium was removed and PTX, CIP2b, or CIP (all dissolved in DMSO and diluted in complete medium) were added to cells as either monotherapies or in combinations, and the plates were incubated for 72 hours. Then, the complete medium was removed and MTS reagent in the complete medium was added to wells, and the plates were incubated for 1-4 hours according to the manufacturer's protocol. Finally, the absorbance was recorded at 490 nm using a Spectra Max plus 384 Microplate Spectrophotometer (Molecular Devices, Sunnyvale, CA). Percentage cell viability was expressed as the average absorbance of the test group relative to that of the control group (untreated cells). The concentration that inhibits proliferation of 50% of cells compared to control (IC50) was calculated using GraphPad Prism (La Jolla, CA). Synergism was detected following the Chou-Talalay method (CI<1 indicates synergism) (Chou T C. Cancer research. 2010; 70(2):440-6, doi: 10.1158/0008-5472.CAN-09-1947) using CompuSyn software (Ver. 1.0). […]

human Topo I = target: T1, human Topo I (Homo sapiens, UniProt P11387); assay: Topoisomerase I inhibition assay (plasmid-based); type: biochemical; conditions: drug final concentration 100 μM
T1 construct: purchased TopoGEN Inc. TG1015-1A
T1 sequence (P11387 1-765): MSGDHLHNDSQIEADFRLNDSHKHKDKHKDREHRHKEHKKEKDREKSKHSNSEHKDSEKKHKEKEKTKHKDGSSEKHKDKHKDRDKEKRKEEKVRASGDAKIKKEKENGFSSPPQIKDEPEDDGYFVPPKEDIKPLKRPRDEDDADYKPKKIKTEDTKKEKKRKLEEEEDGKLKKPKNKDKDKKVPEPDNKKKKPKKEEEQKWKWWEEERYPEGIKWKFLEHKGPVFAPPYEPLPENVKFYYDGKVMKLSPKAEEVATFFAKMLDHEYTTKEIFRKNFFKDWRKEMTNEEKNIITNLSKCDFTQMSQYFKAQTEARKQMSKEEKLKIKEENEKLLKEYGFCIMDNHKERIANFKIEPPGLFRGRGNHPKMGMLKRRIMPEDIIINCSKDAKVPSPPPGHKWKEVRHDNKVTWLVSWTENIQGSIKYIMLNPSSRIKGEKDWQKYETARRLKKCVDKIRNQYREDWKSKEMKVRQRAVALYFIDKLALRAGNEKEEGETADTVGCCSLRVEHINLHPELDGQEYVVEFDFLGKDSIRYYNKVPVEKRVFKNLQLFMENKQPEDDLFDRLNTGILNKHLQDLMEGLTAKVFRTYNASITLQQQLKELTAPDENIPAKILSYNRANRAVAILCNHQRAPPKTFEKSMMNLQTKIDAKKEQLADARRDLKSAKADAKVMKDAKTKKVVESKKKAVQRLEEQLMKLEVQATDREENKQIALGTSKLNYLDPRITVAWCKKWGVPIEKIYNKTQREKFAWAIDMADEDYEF
Description: Topoisomerase I inhibition assay. A plasmid-based Topo I assay (Cat. No. TG1015-1A, TopoGEN Inc., Buena Vista, CO) was performed according to the manufacturer's instructions. Briefly, 1 μL of the test compounds (PTX, CIP, CIP2b, or CAM) at a concentration of 2 mM, was mixed with 2 μL of the reaction buffer (10× tris-glycine-SDS), and deionized water was added to make 18 μL solution. This was followed by adding 1 μL of supercoiled DNA (SC DNA) and 1 μL of human Topo I (10 U/μL) (drug final concentration was 100 μM). Also, SC DNA±Topo I was used as a control (i.e., not containing drugs). In addition, relaxed DNA was added as another control in this assay. Samples were incubated on a heating block (Isotemp 125 D Digital Heat Block, ThermoFisher Scientific) set at 37° C. for 30 minutes. Then, the reaction was stopped by adding a 5× stop buffer. Samples were then loaded directly into the wells of a 1% agarose gel (Research Products International, Mount Prospect, IL). The gel was run at 150 V until the dye front had traveled approximately 5 cm (run time was approximately 2 hours). The gel was then stained with 1 μg/mL ethidium bromide in deionized water for 15 minutes, and this was followed by de-staining (washing) with deionized water for 30 min before imaging. The image was then taken using an Invitrogen iBright CL 1500 Imaging System (ThermoFisher Scientific). The intensity of the final bands in the gel was quantified using ImageJ, and the results are expressed as the percentage of Topo I inhibition.

human Topo IIα = target: T2, human Topo IIα (Homo sapiens, UniProt P11388); assay: Topoisomerase II inhibition assay (plasmid-based); type: biochemical; conditions: drug final concentration 100 μM; read-out: percentage of Topo II inhibition
T2 construct: purchased TopoGEN Inc. TG1001-1A
T2 sequence (P11388 whole entry): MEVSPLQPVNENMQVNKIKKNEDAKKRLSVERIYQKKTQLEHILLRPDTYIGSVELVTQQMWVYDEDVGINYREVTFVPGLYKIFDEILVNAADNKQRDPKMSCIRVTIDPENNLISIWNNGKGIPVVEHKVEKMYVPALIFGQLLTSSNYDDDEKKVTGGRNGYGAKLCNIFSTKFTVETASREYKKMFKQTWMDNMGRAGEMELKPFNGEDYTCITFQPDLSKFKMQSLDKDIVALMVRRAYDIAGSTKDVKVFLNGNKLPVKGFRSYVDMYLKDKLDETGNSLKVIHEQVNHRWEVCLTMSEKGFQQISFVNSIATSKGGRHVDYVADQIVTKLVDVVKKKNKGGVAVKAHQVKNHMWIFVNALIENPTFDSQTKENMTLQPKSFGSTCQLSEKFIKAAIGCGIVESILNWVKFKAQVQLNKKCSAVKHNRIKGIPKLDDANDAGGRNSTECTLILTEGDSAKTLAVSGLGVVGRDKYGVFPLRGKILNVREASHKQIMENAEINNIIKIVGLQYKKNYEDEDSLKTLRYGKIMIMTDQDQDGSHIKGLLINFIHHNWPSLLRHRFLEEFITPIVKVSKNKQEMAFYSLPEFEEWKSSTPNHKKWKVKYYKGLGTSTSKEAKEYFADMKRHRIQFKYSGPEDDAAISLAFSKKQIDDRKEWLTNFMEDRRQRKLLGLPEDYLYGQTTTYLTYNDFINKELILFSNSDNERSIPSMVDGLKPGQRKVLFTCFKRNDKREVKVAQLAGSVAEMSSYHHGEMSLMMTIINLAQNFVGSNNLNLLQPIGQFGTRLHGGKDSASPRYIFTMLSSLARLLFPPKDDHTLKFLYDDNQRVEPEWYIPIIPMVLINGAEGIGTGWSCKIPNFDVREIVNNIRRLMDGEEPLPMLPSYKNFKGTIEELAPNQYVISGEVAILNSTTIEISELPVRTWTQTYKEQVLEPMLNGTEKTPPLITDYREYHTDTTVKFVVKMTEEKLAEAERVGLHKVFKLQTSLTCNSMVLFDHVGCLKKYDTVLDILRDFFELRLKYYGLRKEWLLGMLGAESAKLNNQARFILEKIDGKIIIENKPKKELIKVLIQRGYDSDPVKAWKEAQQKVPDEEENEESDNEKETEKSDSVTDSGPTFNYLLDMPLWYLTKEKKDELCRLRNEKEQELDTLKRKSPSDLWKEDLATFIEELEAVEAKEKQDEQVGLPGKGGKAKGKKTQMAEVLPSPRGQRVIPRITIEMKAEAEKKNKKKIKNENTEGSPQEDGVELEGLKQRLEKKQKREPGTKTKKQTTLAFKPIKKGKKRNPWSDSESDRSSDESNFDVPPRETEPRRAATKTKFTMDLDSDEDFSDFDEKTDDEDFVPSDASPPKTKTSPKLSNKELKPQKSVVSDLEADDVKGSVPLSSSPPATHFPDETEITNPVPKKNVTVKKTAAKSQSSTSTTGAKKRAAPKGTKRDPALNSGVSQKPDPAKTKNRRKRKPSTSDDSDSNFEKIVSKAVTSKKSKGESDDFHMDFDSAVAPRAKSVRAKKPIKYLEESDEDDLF
Description: Topoisomerase II inhibition assay. A plasmid-based Topo II assay (Cat. No. TG1001-1A, TopoGEN Inc., Buena Vista, CO) was performed according to the manufacturer's instructions. In this experiment, 1 μL of tested compounds (PTX, CIP, CIP2b, ETO) at a concentration of 2 mM was mixed with 4 μL of the reaction buffer (mixture of buffer A (0.5 M Tris-HCl (pH 8), 1.50 M NaCl, 100 mM MgCl2, 5 mM Dithiothreitol, 300 μg BSA/mL) and buffer B (10× ATP Buffer), and deionized water was added to make 18 μL solution. This was followed by adding 1 μL of catenated DNA and 1 μL of human Topo IIα (8 U/μL) (drug final concentration was 100 μM). Additionally, decatenated DNA (De-CT DNA) and catenated DNA (CT DNA)±Topo II were used as a control (i.e., not containing drugs). Moreover, relaxed DNA was added as another control in this assay. Similar to Topo I assay, samples were then incubated on a heating block set at 37° C. for 30 minutes. Then, the reaction was stopped by the addition of a 5× stop buffer. Samples were then loaded directly into the wells of a 1% agarose gel containing 1 μg/mL ethidium bromide. The gel was run at 150 V until the dye front had traveled approximately 5 cm (run time was approximately 2 h). The gel was then washed with deionized water for 30 minutes before imaging. The image was taken using an Invitrogen iBright CL1500 Imaging System. The intensity of the final bands in the gel was quantified using ImageJ, and the results are expressed as the percentage of Topo II inhibition.

[1] = system: advanced pancreatic ductal adenocarcinoma (PDAC); conditions: patients with advanced PDAC; cited from earlier work
cancer cell lines = assay: Cytotoxicity (MTS), CIP2b with checkpoint inhibitors; type: cell-based; conditions: AZD7762 50 and 75 nM; MK1775 150 and 250 nM
Description: Cytotoxicity assay. Hec50co cells were seeded at 1500 cells per well in 96-well plates for 24 h in a complete medium. Later, the medium was removed and PTX, CIP2b, or CIP (all dissolved in DMSO and diluted in complete medium) were added to cells as either monotherapies or in combinations, and the plates were incubated for 72 hours. Then, the complete medium was removed and MTS reagent in the complete medium was added to wells, and the plates were incubated for 1-4 hours according to the manufacturer's protocol. Finally, the absorbance was recorded at 490 nm using a Spectra Max plus 384 Microplate Spectrophotometer (Molecular Devices, Sunnyvale, CA). Percentage cell viability was expressed as the average absorbance of the test group relative to that of the control group (untreated cells). The concentration that inhibits proliferation of 50% of cells compared to control (IC50) was calculated using GraphPad Prism (La Jolla, CA). Synergism was detected following the Chou-Talalay method (CI<1 indicates synergism) (Chou T C. Cancer research. 2010; 70(2):440-6, doi: 10.1158/0008-5472.CAN-09-1947) using CompuSyn software (Ver. 1.0).
Cytotoxicity was evaluated using the MTS assay described above.

| Compound | Topo I inhibitory activity (gel) (human Topo I) | inhibition at 100 µM (human Topo IIα) | potentiation or synergism in combination with CIP2b (cancer cell lines) | further results |
| --- | --- | --- | --- | --- |
| O=C(O)c1cn(C2CC2)c2cc(N3CCNCC3)c(F)cc2c1=O [CIP, ciprofloxacin] | neither PTX nor CIP did inhibit Topo I | 62% |  | survival curve of PTX with added compound vs PTX alone (Hec50co cells): superimposed |
| CC[C@@]1(O)C(=O)OCc2c1cc1n(c2=O)Cc2cc3ccccc3nc2-1 [CAM, camptothecin] | potent inhibitor of Topo I |  |  |  |
| COc1cc([C@@H]2c3cc4c(cc3[C@@H](O[C@@H]3O[C@@H]5CO[C@@H](C)O[C@H]5[C@H](O)[C@H]3O)[C@H]3COC(=O)[C@H]23)OCO4)cc(OC)c1O [ETO, etoposide] |  | ~96% |  |  |
| Nc1ccn([C@@H]2O[C@H](CO)[C@@H](O)C2(F)F)c(=O)n1 [gemcitabine] |  |  |  | median survival [1]: 6.7-6.8 months |
| NC(=O)Nc1cc(-c2cccc(F)c2)sc1C(=O)N[C@H]1CCCNC1 [AZD7762] |  |  | did not show any noticeable potentiation or synergism |  |
| C=CCn1c(=O)c2cnc(Nc3ccc(N4CCN(C)CC4)cc3)nc2n1-c1cccc(C(C)(C)O)n1 [MK1775, adavosertib] |  |  | did not show any noticeable potentiation or synergism |  |
